Measurements from PMC5391474, “Investigation of the Role of Protein Kinase D in Human Rhinovirus Replication” (Journal of Virology, 2017).

Columns and labels:
PKD (PKD1) = target: T1, PKD (PKD1) (Homo sapiens, UniProt Q15139); test: in vitro kinase assay with purified recombinant kinase; also pS916 inhibition in PANC1 and HeLa cells; assay type: biochemical
T1 construct: gene PRKD1

PI4K2A = PI4K2A (Homo sapiens, UniProt Q9BTU6); test: biochemical; set-up: in vitro kinase selectivity panel, protein and lipid kinases, single concentration, ATP at Km; conditions: ATP at Km
Procedure: (§1) CRT0066101 was described previously ([48]) and was purchased for this study from Tocris, with a purity of 99.9%. CRT0066101 (XX-209) and compound XX-050 were synthesized as previously described ([68]). CRT0066051 (Y-095) was also synthesized as previously described ([69]). […] CRT0066101 can also be obtained in larger quantities from Ximbio. Inhibitors were tested in in vitro PKD kinase assays and cellular assays on PANC1 cells as previously described ([48]). The selectivity of the three PKD inhibitors was determined against a panel of protein and lipid kinases by Eurofins and the MRC PPU International Centre for Kinase Profiling (http://www.kinase-screen.mrc.ac.uk), respectively. Each inhibitor was tested at a single concentration of 1 μM and at an ATP concentration equivalent to the Km for each kinase. Having shown that HRV infection appears to activate PKD, we went on to explore the influence of chemical inhibitors of PKD on HRV replication. The compound CRT0066101 is a specific and potent PKD inhibitor that has been used in studies exploring its potential as an anticancer target ([48], [51]). This inhibitor has a 50% inhibitory concentration (IC50) of 1 nM against purified PKD in biochemical assays and a 50% effective concentration (EC50) of 1 μM in a cell-based assay (Table 1). We pretreated HeLa cells with increasing concentrations of the drug for 1 h followed by infection with HRV16. Viral replication was subsequently measured at 6 hpi by quantitative real-time PCR (qRT-PCR) (Fig. 2A) and by Western blotting using an antibody against the viral nonstructural protein 2C (Fig. 2B). […] Furthermore, we tested two novel and structurally different PKD inhibitors (CRT0066051 and XX-050) (Table 1) and confirmed that they too inhibited HRV 2C expression although with different potencies (Fig. 2D). Kinase selectivity profiling of all three PKD inhibitors was performed against a panel of protein and lipid kinases at a drug concentration of 1 μM and at an ATP concentration equivalent to the Km of each kinase (see Table S1 in the supplemental material). […] Since PKD is known to be involved in regulating the architecture of the Golgi apparatus, we confirmed the pharmacodynamic effect of these inhibitors by demon

PIK3CA / p85 (h) = target: T2, PIK3CA / p85 (h) (Homo sapiens, UniProt P42336); test: biochemical; set-up: in vitro kinase selectivity panel, protein and lipid kinases, single concentration, ATP at Km; conditions: ATP at Km
T2 construct: p110alpha/p85
Procedure: as §1

PIK3CG / p85 (h) = target: T3, PIK3CG / p85 (h) (Homo sapiens, UniProt P48736); test: biochemical; set-up: in vitro kinase selectivity panel, protein and lipid kinases, single concentration, ATP at Km; conditions: ATP at Km
T3 construct: p110gamma/p85 as printed
Procedure: as §1

HIPK2(h) = HIPK2(h) (Homo sapiens, UniProt Q9H2X6); test: biochemical; set-up: in vitro kinase selectivity panel, protein and lipid kinases, single concentration, ATP at Km; conditions: ATP at Km
Procedure: as §1

Flt3(D835Y)(h) = Flt3(D835Y)(h) (Homo sapiens, UniProt P36888, D835Y); test: biochemical; set-up: in vitro kinase selectivity panel, protein and lipid kinases, single concentration, ATP at Km; conditions: ATP at Km
Procedure: as §1

PIK4B = target: T4, PIK4B (Homo sapiens, UniProt Q9UBF8); test: biochemical; set-up: in vitro kinase selectivity panel, protein and lipid kinases, single concentration, ATP at Km; conditions: ATP at Km
T4 construct: gene PI4KB
Procedure: as §1

Pim-1(h) = target: T5, Pim-1(h) (Homo sapiens, UniProt P11309); test: biochemical; set-up: in vitro kinase selectivity panel, protein and lipid kinases, single concentration, ATP at Km; conditions: ATP at Km
T5 construct: gene PIM1
Procedure: as §1

PAK2(h) = PAK2(h) (Homo sapiens, UniProt Q13177); test: biochemical; set-up: in vitro kinase selectivity panel, protein and lipid kinases, single concentration, ATP at Km; conditions: ATP at Km
Procedure: as §1

PDGFRβ(h) = target: T6, PDGFRβ(h) (Homo sapiens, UniProt P09619); test: biochemical; set-up: in vitro kinase selectivity panel, protein and lipid kinases, single concentration, ATP at Km; conditions: ATP at Km
T6 construct: gene PDGFRB
Procedure: as §1

SPHK2 = SPHK2 (Homo sapiens, UniProt Q9NRA0); test: biochemical; set-up: in vitro kinase selectivity panel, protein and lipid kinases, single concentration, ATP at Km; conditions: ATP at Km
Procedure: as §1

MST2(h) = target: T7, MST2(h) (Homo sapiens, UniProt Q13188); test: biochemical; set-up: in vitro kinase selectivity panel, protein and lipid kinases, single concentration, ATP at Km; conditions: ATP at Km
T7 construct: gene STK3
Procedure: as §1

NEK2(h) = NEK2(h) (Homo sapiens, UniProt P51955); test: biochemical; set-up: in vitro kinase selectivity panel, protein and lipid kinases, single concentration, ATP at Km; conditions: ATP at Km
Procedure: as §1

MEK1(h) = target: T8, MEK1(h) (Homo sapiens, UniProt Q02750); test: biochemical; set-up: in vitro kinase selectivity panel, protein and lipid kinases, single concentration, ATP at Km; conditions: ATP at Km
T8 construct: gene MAP2K1
Procedure: as §1

PKBα(h) = target: T9, PKBα(h) (Homo sapiens, UniProt P31749); test: biochemical; set-up: in vitro kinase selectivity panel, protein and lipid kinases, single concentration, ATP at Km; conditions: ATP at Km
T9 construct: gene AKT1
Procedure: as §1

ALK(h) = ALK(h) (Homo sapiens, UniProt Q9UM73); test: biochemical; set-up: in vitro kinase selectivity panel, protein and lipid kinases, single concentration, ATP at Km; conditions: ATP at Km
Procedure: as §1

HIPK3(h) = HIPK3(h) (Homo sapiens, UniProt Q9H422); test: biochemical; set-up: in vitro kinase selectivity panel, protein and lipid kinases, single concentration, ATP at Km; conditions: ATP at Km
Procedure: as §1

PKCγ(h) = target: T10, PKCγ(h) (Homo sapiens, UniProt P05129); test: biochemical; set-up: in vitro kinase selectivity panel, protein and lipid kinases, single concentration, ATP at Km; conditions: ATP at Km
T10 construct: gene PRKCG
Procedure: as §1

T9 sequence (P31749 whole entry): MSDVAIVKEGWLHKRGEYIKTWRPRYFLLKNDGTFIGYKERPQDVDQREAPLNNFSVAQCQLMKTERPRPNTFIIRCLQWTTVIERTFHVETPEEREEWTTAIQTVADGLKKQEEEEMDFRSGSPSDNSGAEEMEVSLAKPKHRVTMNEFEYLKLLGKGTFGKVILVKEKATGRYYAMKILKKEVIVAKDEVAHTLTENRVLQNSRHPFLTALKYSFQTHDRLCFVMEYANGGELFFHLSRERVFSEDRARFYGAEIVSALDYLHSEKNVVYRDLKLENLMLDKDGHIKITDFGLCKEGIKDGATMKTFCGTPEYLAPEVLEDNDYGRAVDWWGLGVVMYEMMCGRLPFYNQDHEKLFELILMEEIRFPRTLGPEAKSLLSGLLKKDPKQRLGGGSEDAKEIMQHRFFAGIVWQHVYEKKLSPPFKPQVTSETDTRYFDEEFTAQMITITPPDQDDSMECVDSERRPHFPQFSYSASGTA
Sequence of SPHK2 (Q9NRA0 whole entry): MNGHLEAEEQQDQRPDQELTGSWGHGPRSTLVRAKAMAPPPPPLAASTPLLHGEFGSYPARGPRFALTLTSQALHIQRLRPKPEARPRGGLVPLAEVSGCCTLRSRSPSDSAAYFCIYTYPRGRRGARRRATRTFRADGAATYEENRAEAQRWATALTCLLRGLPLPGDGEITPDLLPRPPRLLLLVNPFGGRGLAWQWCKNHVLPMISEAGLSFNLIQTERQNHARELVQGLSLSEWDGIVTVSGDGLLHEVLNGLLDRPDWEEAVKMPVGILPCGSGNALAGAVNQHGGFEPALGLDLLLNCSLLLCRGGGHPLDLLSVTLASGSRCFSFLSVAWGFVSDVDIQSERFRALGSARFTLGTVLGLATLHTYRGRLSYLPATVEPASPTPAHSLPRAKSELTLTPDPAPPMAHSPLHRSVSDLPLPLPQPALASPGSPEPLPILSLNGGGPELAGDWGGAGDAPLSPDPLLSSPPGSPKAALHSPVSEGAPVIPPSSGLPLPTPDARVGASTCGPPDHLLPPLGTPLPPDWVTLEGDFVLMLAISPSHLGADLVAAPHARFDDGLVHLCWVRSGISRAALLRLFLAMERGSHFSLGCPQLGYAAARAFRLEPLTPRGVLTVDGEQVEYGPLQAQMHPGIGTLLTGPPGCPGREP
T6 sequence (P09619 whole entry): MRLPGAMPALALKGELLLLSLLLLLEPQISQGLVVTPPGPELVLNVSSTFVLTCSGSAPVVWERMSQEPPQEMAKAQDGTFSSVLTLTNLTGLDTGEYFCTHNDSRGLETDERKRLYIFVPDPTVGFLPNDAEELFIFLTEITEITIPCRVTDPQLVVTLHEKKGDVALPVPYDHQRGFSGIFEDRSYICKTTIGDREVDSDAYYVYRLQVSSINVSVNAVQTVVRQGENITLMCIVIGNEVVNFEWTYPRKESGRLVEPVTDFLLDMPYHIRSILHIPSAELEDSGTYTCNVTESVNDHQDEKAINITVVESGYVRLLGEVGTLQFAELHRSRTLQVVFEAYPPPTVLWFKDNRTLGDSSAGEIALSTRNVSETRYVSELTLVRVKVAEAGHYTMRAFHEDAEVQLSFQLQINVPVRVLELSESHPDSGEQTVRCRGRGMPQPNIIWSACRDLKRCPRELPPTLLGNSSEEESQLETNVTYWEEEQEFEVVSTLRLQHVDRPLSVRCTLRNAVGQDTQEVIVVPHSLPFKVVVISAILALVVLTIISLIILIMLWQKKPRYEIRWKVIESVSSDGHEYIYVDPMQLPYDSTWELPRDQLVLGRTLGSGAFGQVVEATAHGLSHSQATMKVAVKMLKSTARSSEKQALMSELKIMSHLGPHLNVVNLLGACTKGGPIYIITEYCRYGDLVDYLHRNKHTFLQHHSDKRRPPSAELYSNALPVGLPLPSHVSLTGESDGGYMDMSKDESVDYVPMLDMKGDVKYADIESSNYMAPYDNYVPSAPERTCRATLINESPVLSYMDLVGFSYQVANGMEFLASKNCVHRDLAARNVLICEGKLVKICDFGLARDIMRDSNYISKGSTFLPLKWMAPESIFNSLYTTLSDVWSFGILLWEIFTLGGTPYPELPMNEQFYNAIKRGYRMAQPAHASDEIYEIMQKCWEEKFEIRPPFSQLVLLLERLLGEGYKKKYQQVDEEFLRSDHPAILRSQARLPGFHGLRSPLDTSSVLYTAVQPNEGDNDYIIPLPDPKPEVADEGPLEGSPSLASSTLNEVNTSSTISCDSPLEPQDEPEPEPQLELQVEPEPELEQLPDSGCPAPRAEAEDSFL
Sequence of HIPK2(h) (Q9H2X6 whole entry): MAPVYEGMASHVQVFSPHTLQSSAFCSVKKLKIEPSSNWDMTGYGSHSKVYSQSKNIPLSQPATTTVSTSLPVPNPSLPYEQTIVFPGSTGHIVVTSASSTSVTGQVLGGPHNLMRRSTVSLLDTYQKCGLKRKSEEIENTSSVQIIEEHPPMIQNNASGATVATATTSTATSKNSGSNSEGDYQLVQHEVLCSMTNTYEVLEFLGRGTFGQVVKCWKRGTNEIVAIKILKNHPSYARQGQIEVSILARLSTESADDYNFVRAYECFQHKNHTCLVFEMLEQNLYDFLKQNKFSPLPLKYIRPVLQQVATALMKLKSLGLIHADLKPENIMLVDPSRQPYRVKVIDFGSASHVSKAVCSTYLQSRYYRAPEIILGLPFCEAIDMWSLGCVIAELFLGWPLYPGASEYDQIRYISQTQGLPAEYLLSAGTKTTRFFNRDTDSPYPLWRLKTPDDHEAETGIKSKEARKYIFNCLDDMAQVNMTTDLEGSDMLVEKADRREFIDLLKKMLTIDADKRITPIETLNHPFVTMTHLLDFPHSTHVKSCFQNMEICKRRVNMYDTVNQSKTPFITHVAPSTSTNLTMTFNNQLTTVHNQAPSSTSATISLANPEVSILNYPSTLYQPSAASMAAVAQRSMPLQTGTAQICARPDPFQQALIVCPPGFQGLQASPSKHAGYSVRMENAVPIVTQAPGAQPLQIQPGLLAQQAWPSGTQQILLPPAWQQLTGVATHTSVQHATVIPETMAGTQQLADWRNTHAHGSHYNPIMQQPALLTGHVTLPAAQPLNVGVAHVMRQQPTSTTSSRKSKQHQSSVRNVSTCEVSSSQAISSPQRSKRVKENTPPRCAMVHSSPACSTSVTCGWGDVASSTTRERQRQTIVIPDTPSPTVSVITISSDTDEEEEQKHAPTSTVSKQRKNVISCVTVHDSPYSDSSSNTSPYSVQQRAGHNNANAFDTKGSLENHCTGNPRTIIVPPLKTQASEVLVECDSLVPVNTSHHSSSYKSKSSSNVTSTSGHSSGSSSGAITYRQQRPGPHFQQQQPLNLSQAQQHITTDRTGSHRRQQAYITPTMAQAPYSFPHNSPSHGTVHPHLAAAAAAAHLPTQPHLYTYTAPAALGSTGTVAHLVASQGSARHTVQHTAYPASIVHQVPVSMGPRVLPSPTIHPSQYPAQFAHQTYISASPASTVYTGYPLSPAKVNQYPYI
T5 sequence (P11309 whole entry): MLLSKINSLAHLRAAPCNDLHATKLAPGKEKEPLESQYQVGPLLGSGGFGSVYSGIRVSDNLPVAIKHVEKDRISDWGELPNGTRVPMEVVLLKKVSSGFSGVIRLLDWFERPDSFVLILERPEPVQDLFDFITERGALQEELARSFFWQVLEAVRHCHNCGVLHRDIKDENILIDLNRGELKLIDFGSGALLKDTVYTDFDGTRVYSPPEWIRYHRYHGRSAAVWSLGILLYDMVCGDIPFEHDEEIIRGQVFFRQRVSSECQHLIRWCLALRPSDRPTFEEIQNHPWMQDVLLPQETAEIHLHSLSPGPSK
T1 sequence (Q15139 whole entry): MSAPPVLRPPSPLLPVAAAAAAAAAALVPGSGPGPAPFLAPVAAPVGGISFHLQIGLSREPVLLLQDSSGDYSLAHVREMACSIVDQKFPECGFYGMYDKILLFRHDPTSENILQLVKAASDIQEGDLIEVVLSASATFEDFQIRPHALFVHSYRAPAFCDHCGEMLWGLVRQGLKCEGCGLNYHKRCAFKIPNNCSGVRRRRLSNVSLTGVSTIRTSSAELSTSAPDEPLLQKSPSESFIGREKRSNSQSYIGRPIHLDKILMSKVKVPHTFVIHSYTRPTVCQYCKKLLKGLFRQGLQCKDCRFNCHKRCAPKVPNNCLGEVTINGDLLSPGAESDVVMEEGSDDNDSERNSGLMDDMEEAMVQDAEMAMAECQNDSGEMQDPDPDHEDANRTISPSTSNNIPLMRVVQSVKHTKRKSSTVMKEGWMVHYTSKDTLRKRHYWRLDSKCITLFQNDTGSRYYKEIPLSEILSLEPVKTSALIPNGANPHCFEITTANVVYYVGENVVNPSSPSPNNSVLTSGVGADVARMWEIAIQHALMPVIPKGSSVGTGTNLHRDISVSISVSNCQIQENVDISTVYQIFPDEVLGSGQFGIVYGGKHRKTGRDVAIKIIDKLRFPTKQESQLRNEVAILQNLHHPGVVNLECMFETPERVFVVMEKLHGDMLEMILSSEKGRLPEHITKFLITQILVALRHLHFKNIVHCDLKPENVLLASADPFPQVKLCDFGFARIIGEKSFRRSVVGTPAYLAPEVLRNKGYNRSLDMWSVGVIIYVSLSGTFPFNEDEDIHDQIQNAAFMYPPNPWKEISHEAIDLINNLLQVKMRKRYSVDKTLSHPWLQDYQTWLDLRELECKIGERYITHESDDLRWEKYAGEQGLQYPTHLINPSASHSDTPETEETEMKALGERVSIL
T8 sequence (Q02750 whole entry): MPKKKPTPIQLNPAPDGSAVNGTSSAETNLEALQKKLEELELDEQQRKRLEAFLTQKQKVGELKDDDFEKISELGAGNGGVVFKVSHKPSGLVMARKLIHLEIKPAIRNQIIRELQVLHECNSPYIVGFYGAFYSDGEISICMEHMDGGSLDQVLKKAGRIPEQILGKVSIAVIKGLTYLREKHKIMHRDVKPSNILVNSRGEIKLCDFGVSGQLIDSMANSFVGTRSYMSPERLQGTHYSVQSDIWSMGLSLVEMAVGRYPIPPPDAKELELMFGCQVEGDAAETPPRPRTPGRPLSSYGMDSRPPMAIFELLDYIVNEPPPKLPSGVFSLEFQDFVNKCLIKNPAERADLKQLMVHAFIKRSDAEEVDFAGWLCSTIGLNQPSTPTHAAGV

## CC[C@@H](N)CNc1ccnc(-c2cc(-c3cnn(C)c3)ccc2O)n1 [CRT0066101]
PKD (PKD1)
  IC50: 1 nM
PI4K2A
  inhibition at 1 µM: 4%
PIK3CA / p85 (h)
  inhibition at 1 µM: -1%
PIK3CG / p85 (h)
  inhibition at 1 µM: -1%
HIPK2(h)
  inhibition at 1 µM: 55%
Flt3(D835Y)(h)
  inhibition at 1 µM: 80%
PIK4B
  inhibition at 1 µM: 33%
Pim-1(h)
  inhibition at 1 µM: 98%
PAK2(h)
  inhibition at 1 µM: 9%
PDGFRβ(h)
  inhibition at 1 µM: -1%
SPHK2
  inhibition at 1 µM: 20%
MST2(h)
  inhibition at 1 µM: 20%
NEK2(h)
  inhibition at 1 µM: 0%
MEK1(h)
  inhibition at 1 µM: 9%
PKBα(h)
  inhibition at 1 µM: -6%
ALK(h)
  inhibition at 1 µM: 3%
HIPK3(h)
  inhibition at 1 µM: 14%
PKCγ(h)
  inhibition at 1 µM: 7%
